Experimental data reported in patent US4748165A, “Amidine derivatives” (Imperial Chemical Industries PLC, priority 1981, dated 1988).

Columns and labels:
anaesthetised rats = assay: intravenous toxicity in anaesthetised rats; format: in vivo; settings: intravenously, two anaesthetised rats, ten times the dose giving approximate 50% inhibition of gastric secretion in the anaesthetised rat
Description: (§1) No overt toxicity or side effects were noted during the rat or dog tests. The compounds N-cyano-5-(4-[2-propylguanidino]pyrimid-2-yl)valeramidino was administered intravenously to groups of two anaesthetised rats and four conscious mice at doses which were respectively ten times and one hundred times the dose, in mg./kg., which produced an approximate 50% inhibition of gastric secretion in the anaesthetised rat.

conscious mice = assay: intravenous toxicity in conscious mice; format: in vivo, mouse; settings: intravenously, four conscious mice, one hundred times the dose giving approximate 50% inhibition of gastric secretion in the anaesthetised rat
Description: as §1

CCCN=C(N)Nc1ccnc(CCCCC(=N)NC#N)n1 [Example 2, N-cyano-5-(4-[2-propylguanidino]pyrimid-2-yl)valeramidine]
toxic symptoms (anaesthetised rats): No toxic symptoms | toxic symptoms (conscious mice): No toxic symptoms
